Read-outs that look alike come from different tables or passages of the source.
What was measured:
D2 receptor = target: T1, D2 receptor (Rattus norvegicus, UniProt P61169); assay: Affinity for Dopamine 2 (D2) receptor, 3H-Spiperone binding test (rat corpus striatum)
T1 construct: Freezed corpus striatum dissected out from rats were homogenized; from tissue; host or cells: rat corpus striatum, crude synaptosome membranes
Description: Experiment 3: Affinity for Dopamine 2 (D2) Receptor (^3 H-Spiperone Binding Test).
Preparation of crude synaptosome fraction and binding assays were conducted in accordance with the method reported in European Journal of Pharmacology, vol. 46, page 377, 1977 by I. Creese et al. Freezed corpus striatum dissected out from rats were homogenized in 100 volumes of ice-cold 50 mM Tris-HCl buffer (pH 7.7) and the suspension was centrifuged at 500×g for 10 minutes at 0° C. The supernatant was centrifuged at 50,000×g for 15 minutes at 0° C. and the resulting pellet was homogenized in 100 volumes of the above buffer and then the suspension was centrifuged at 50,000×g for 15 minutes at 0° C. again. The resulting pellet was homogenized in 150 volumes of 50 mM Tris-HCl buffer (pH 7.1) containing 120 mM potassium chloride, 2 mM calcium chloride, 1 mM magnesium chloride, 0.1% ascorbic acid and 10 μM pargyline. The suspension was incubated at 37° C. for 10 minutes and then provided as synaptosome membranes solution for the next assays. To the aliquots (900 μ) of synaptosome membranes solution were added 50 μl of 3H-Spiperone solution at the terminal concentration of 0.2 nM and 50 μl of test compound solution or 50 μl of its medium, and incubated at 37° C. for 20 minutes. After completion of the reaction, the mixture was rapidly vacuum-filtered through WhatmanR GF/B filters. The filters were washed three times with 5 ml of the above buffer, and then the radioactivity of the residue remaining on the filters was measured by liquid scintillation counter. Non specific binding was determined under presence of 100 μM of (L)-Sulpiride 50% inhibition concentration (IC50) of the test compound was graphically determined.

5-HT1A receptor = target: T2, 5-HT1A receptor (Rattus norvegicus, UniProt P19327); assay: Affinity for Serotonin 1A receptor, 3H-8-OH-DPAT binding test (rat hippocampus synaptosome membranes)
T2 construct: Freezed hippocampus dissected out from rats were homogenized; from tissue; host or cells: rat hippocampus, crude synaptosome membranes
T2 sequence (P19327 1-422): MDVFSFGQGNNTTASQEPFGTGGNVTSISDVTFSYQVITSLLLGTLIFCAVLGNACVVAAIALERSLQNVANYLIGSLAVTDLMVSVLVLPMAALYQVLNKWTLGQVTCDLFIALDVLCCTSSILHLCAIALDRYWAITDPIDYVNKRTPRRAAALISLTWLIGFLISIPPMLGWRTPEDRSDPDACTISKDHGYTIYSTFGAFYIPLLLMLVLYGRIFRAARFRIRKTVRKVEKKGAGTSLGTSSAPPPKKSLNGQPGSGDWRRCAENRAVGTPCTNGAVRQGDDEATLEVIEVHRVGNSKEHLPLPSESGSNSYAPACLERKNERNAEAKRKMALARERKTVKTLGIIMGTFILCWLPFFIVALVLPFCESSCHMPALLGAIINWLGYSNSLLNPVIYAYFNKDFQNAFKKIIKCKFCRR
Description: Experiment 1: Affinity for Serotonin 1A (^5 KT1A) Receptor [^3 H-8-Hydroxy-2-dipropylaminotetralin (^3-8 -OH-DPTA)-Binding Test].
Preparation of crude synaptosome fraction and binding assay were conducted in accordance with the method reported in Journal of Neurochemistry, vol.
The supernatant was centrifuged at 40,000×g for 20 minutes at 0° C. and the resulting pellet was homogenized in 40 volumes of the above buffer and incubated at 37° C. for 10 minutes.
After completion of reaction, the suspension was centrifuged at 40,000×g for 20 minutes at 0° C. The resulting pellet was washed twice by resuspension in 40 volumes of the above buffer and centrifugation, and finally suspended in 60 volumes of ice-cold 50 mM Tris-HCl buffer (pH 7.4) containing 1 EM manganese chloride for use in the next assay.
To the aliquots (900 μl) of synaptosome membranes solution were added 50 μl of tritiated 8-OH-DPAT solution at the terminal concentration of 0.2 nM and 50 μl of test compound solution or 50 μl of its medium, and incubated at 37° C. for 10 minutes. Then to the mixture were added 5 ml of ice-cold 50 mM Tris-HCl buffer (pH 7.4) rapidly vacuum-filtered through Whatman^R GF/B. filters and was washed twice with 5 ml of the same buffer. The radioactivity of the residue remaining on the filters was measured by liquid scintillation counter. Non specific binding was determined under the presence of 10^-5 M serotonin (5-HT).

D1 receptor = D1 receptor binding (Binding Profile table)
5-HT2 receptor = target: T3, 5-HT2 receptor (Rattus norvegicus, UniProt P14842); assay: Affinity for Serotonin 2 (5-HT2) receptor, 3H-Ketanserin binding test (rat cerebral cortex); details: 3H-Ketanserin 0.2 mM (so in the source), 37° C., 20 minutes, read-out: Binding Profile IC50 5-HT2
T3 construct: Freezed cerebral cortex dissected out from rats were homogenized; from tissue; host or cells: rat cerebral cortex, crude synaptosome membranes
T3 sequence (P14842 whole entry): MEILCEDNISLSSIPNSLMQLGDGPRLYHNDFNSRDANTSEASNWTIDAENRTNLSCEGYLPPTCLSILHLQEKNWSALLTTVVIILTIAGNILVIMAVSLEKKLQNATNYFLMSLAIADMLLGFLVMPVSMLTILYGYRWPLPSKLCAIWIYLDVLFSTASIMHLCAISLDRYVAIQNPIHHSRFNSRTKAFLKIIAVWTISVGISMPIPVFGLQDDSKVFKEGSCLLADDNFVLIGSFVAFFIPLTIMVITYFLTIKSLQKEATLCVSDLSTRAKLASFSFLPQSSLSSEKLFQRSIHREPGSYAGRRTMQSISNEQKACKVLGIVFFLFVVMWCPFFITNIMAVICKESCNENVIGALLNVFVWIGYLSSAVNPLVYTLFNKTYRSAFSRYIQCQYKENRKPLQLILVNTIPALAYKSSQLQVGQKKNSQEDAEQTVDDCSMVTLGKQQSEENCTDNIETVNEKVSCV
Description: Experiment 2: Affinity for Serotonin 2(5-HT2) Receptor (^3 H-Ketanserin Binding Test).
Preparation of crude synaptosome fraction and binding assay were conducted according to the method reported in Molecular Pharmacology, vol. 21, page 301, 1981 by Leysen et al.
Freezed cerebral cortex dissected out from rats were homogenized in 30 volumes of ice-cold 0.32M sucrose solution and the suspension was centrifuged at 1000×g for 10 minutes at 0° C. The supernatant was centrifuged at 40,000×g for 20 minutes at 0° C. and the resulting pellets was homogenized in 30 volumes of ice-cold 50 mM Tris-HCl buffer (pH 7.7) and incubated at 37° C. for 10 minutes. The suspension was centrifuged at 40,000×g for 20 minutes at 0° C. again. The resulting pellet was homogenized in 100 volumes of the above buffer and provided as synaptosome membranes solutiofifor the next assay.
To the aliquots (900μ) of synaptosome membranes solution were added 50 μl solution ^3 H-Ketanserin solution at the terminal concentration of 0.2 mM and 50 μl of test compound or its medium, and incubated at 37° C. for 20 minutes. After completion of the reaction, the mixture was rapidly vacuum-filtered through Whatman^R GF/B filters. The filters were washed three times with 5 ml of the above buffer, and then the radioactivity of the residue remaining on the filters was measured by liquid scintillation counter. Non specific binding was determined under the presence of 10 μM of mianserin. 50% inhibition concentration (ICY) of the test compound was graphically determined.

[1] = 3H-Spiperone 0.2 nM, rat corpus striatum, 37° C., 20 minutes, read-out: Binding Profile IC50 D2
[2] = tritiated 8-OH-DPAT 0.2 nM, rat hippocampus, 37° C., 10 minutes, read-out: Binding Profile IC50 5-HT1A
[3] = read-out: Binding Profile IC50 5-HT1A, tritiated 8-OH-DPAT 0.2 nM, rat hippocampus, 37° C., 10 minutes

T1 sequence (P61169 whole entry): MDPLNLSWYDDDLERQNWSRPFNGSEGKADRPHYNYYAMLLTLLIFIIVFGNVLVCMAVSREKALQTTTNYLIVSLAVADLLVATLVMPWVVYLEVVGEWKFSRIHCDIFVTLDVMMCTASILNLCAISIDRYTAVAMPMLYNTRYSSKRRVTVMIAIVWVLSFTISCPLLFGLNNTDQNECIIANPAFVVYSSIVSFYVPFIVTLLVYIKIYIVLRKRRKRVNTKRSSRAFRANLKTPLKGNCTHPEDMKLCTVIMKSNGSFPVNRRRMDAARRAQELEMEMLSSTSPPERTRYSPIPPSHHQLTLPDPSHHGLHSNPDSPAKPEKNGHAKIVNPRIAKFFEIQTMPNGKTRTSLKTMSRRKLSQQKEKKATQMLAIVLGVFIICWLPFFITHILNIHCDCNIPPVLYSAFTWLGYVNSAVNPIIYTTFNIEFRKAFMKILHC

`C[C@H]1CN(C)[C@@H]2Cc3c[nH]c4cccc(c34)C=C21` [Example 3, 5β(10→9)abeo-9,10-Didehydro-6-methyl-8β-methyl-ergoline] gave an IC50 (D2 receptor; [1]) of 940 nM, an IC50 (5-HT1A receptor) of 6 nM and an IC50 (D1 receptor) of 1850 nM. The IC50 (5-HT2 receptor) was 110 nM.
`C[C@H]1CN(C)[C@@H]2Cc3c(Br)[nH]c4cccc(c34)C=C21` [Example 4, 5β(10→9)abeo-9,10-Didehydro-2-bromo-6-methyl-8β-methyl-ergoline] showed an IC50 (D2 receptor; [1]) of 620 nM, an IC50 (5-HT1A receptor; [2]) of 330 nM and an IC50 (D1 receptor) of 1920 nM. For the same molecule, the IC50 (5-HT2 receptor) was 1000 nM.
For `CSc1[nH]c2cccc3c2c1C[C@@H]1C(=C3)[C@@H](C)CN1C` [Example 5, 5β(10→9)abeo-9,10-Didehydro-2-methylthio-6-methyl-8β-methyl-ergoline], the IC50 (D2 receptor) was 850 nM, the IC50 (5-HT1A receptor) was 800 nM and the IC50 (D1 receptor) was 2540 nM. It also gave an IC50 (5-HT2 receptor) of 800 nM.
For `C[C@H]1CN(C)[C@@H]2C[C@@H]3CNc4cccc(c43)C=C21` [Example 33, 5β(10→9)abeo-2,3β-Dihydro-9,10-didehydro-6-methyl-8β-methyl-ergoline], the IC50 (D2 receptor; [1]) was greater than 10000 nM, the IC50 (5-HT1A receptor; [3]) was 6 nM and the IC50 (D1 receptor) was greater than 10000 nM. The IC50 (5-HT2 receptor) was greater than 10000 nM.
`CC(=O)N1C[C@H]2C[C@@H]3C(=Cc4cccc1c42)[C@@H](C)CN3C` [Example 34, 5β(10→9)abeo-2,3β-Dihydro-9,10-didehydro-1-acetyl-6-methyl-8β-methyl-ergoline] was tested, and the IC50 (D2 receptor; [1]) was 5000 nM, the IC50 (5-HT1A receptor; [2]) was 100 nM and the IC50 (D1 receptor) was greater than 10000 nM. It also gave an IC50 (5-HT2 receptor) greater than 10000 nM.
`CC(=O)N1C[C@@H]2C[C@@H]3C(=Cc4cccc1c42)[C@@H](C)CN3C` [Example 35, 5β(10→9)abeo-2,3α-Dihydro-9,10-didehydro-1-acetyl-6-methyl-8β-methyl-ergoline] showed an IC50 (D2 receptor; [1]) of 6030 nM, an IC50 (5-HT1A receptor; [2]) of 530 nM and an IC50 (D1 receptor) greater than 10000 nM. For the same molecule, the IC50 (5-HT2 receptor) was greater than 10000 nM.
For `C[C@H]1CN(C)[C@@H]2C[C@@H]3CN(C(N)=O)c4cccc(c43)C=C21` [Example 36, 5β(10→9)abeo-2,3β-Dihydro-9,10-didehydro-1-amino-carbonyl-6-methyl-8β-methyl-ergoline], the IC50 (D2 receptor; [1]) was 4480 nM, the IC50 (5-HT1A receptor; [2]) was 100 nM and the IC50 (D1 receptor) was greater than 10000 nM. It also gave an IC50 (5-HT2 receptor) greater than 10000 nM.
`C[C@H]1CN(C)[C@@H]2C[C@@H]3CNc4ccc(Br)c(c43)C=C21` [Example 39, 5β(10→9)abeo-2,3β-Dihydro-9,10-didehydro-6-methyl-8β-methyl-12-bromo-ergoline] was tested, and the IC50 (D2 receptor) was 130 nM, the IC50 (5-HT1A receptor) was 6 nM and the IC50 (D1 receptor) was 7100 nM. The IC50 (5-HT2 receptor) was 2080 nM.
`C[C@H]1CN(C)[C@@H]2C[C@@H]3CNc4ccc([N+](=O)[O-])c(c43)C=C21` [Example 40, 5β(10→9)abeo-2,3β-Dihydro-9,10-didehydro-6-methyl-8β-methyl-12 nitro-ergoline] gave an IC50 (D2 receptor; [1]) of 4870 nM, an IC50 (5-HT1A receptor; [2]) of 3 nM and an IC50 (D1 receptor) of 2750 nM. It also gave an IC50 (5-HT2 receptor) of 1240 nM.
`C[C@H]1CN(C)[C@@H]2Cc3c[nH]c4ccc([N+](=O)[O-])c(c34)C=C21` [Example 42, 5β(10→9)abeo-9,10-Didehydro-6-methyl-8β-methyl-14-nitro ergolina] showed an IC50 (D2 receptor; read-out: Binding Profile IC50 D2, 3H-Spiperone 0.2 nM, rat corpus striatum, 37° C., 20 minutes) of 2000 nM, an IC50 (5-HT1A receptor; [3]) of 18 nM and an IC50 (D1 receptor) greater than 10000 nM. It also gave an IC50 (5-HT2 receptor) of 1860 nM.

Reference: US6284896A, “Abeo-ergoline derivatives as 5HT1A ligands” (Pharmacia & Upjohn S.p.A., priority 1994, dated 2001)
